Measurements reported in patent US9918986B2, “Methods and compounds for preventing osteoarthritis” (UNIVERSITY COLLEGE CARDIFF CONSULTANTS LIMITED, priority 2013, dated 2018).

What was measured:
AIA rats [1] = assay: Macroscopic knee analysis (X-ray, MRI) in AIA rats; assay type: in vivo, rat; conditions: day 21
Text: Prior to decalcification, whole rat knees were examined by radiography and MRI. Radiographs of both the inflamed and non-inflamed knees of 9 AIA, 9 NBQX and 3 control rats were obtained using a Kodak FX Pro in-vivo Imaging System (Advanced Molecular Vision, Grantham, UK), and the images analysed using Kodak Molecular Imaging software version 5 with the following parameters: 30 second exposure time at 35 kV, 4.96 F-stop, 71.4 mm FOV, 9.8 mm focal plane.
Both the inflamed and non-inflamed knee joints of 6 AIA and 6 NBQX rats were imaged using a high spatial resolution MRI scanning protocol at the Experimental MRI Centre (EMRIC, School of Biosciences, Cardiff University). Each pair of knees was embedded in 1% agarose (Promega) inside a 50 ml falcon tube prior to scanning. MRI was performed using a Bruker Biospin Advance 9.4T ([…]) MRI system equipped with a transmit-receive quadrature coil. The scanning acquisition parameters were as follows: echo time […], repetition time 24 msec, field of view […]; matrix 640×280×280; and flip angle 180°. Images were subsequently viewed and analysed in ParaVision 5.1 (Bruker) and Analyze 10.0 software Mayo Biomedical Imaging Resource, Rochester, Minn., USA).

Cathepsin K mRNA = assay: Bone phenotype mRNA expression in AIA rat knees; assay type: in vivo; conditions: day 21
AIA rats [2] = assay: Knee swelling in AIA rats; assay type: in vivo, rat
Procedure: Diameters of the inflamed (right) and non-inflamed (left) knees of all the rats were measured using a Mitutoyo® digital calliper (RS Components Ltd, Northants, UK) to quantify swelling. […] Three readings were taken for each knee and the difference between the means of the inflamed and non-inflamed knee gave a value in millimeters of knee swelling.

AIA rats [3] = assay: Histological disease assessment in AIA rats (synovial inflammation, joint degradation); assay type: in vivo, rat; conditions: day 21
Procedure: On day 21, 9 AIA, 9 NBQX and 3 control rats were culled and their knees dissected intact and fixed in 10% neutral buffered formalin solution (Sigma) for 2 days. Knees were decalcified in 10% EDTA (Fisher Scientific, Loughborough, UK) at 4° C., embedded in paraffin wax, sectioned (6 μm) in the coronal plane and stained with haematoxylin and eosin for synovial inflammation or toluidine blue/safranin-O for cartilage and bone scoring or retained for immunohistochemical analysis. Synovial inflammation and joint degradation were scored by two independent observers blinded to treatment group. An established scoring system was used to score synovial inflammation (3). Briefly, 3 parameters were scored: synovial hyperplasia (pannus formation) (0-3), synovial infiltrate (0-5) and synovial exudate (0-3), to give a maximum score of 11 per joint. Joint degradation was scored using a modified Mankin score (Table 1) consisting of: cartilage surface integrity (0-6), chondrocyte appearance (0-2), proteoglycan loss (0-4), tidemark integrity (0-2) and bone changes (0-3) to give a maximum score of 17 per joint quadrant (medial and lateral femoral condyles (MFC and LFC respectively) and medial and lateral tibial plateaux (MTP and LTP respectively)) totaling to a maximum of 68 per knee. In each knee, two representative sections ˜500 μm apart were scored for joint degradation.

MNX rats [4] = assay: Incapacitance testing in MNX rats; assay type: in vivo, rat; conditions: day 8
Procedure: (§1) We have established the meniscal transection (MNX) rat model of osteoarthritis. Surgery resection was performed wherein cutting through and removing part of the medial collateral ligament and then transecting the medial meniscus was performed under Home Office License. Surgery was performed under anaesthesia. Animals were then allowed to recover from surgery.
(§2) Using the MNX model, we tested the effects of NBQX injected directly into the knee joint. There were 5 groups of male Sprague-Dawley rats, 3 animals per group as follows: • MNX+sterile H2O (vehicle control) • MNX+2.5 mM NBQX • MNX+12.5 mM NBQX • MNX+25 mM NBQX • Naïve
(§3) NBQX treated rats received two intra-articular injections, the first immediately after MNX surgery and the second 7 days later. A single dose of Temgesic was also given sub-cutaneously to relieve pain following surgery. […] Vehicle control rats received injections of sterile H2O delivered in the same way at the same times. Over 21 days, weight, knee swelling (digital calliper) and incapacitance (Linton incapacitance meter) were measured on days 0, 1, 2, 3, 7, 8, 10, 14 and 21. The Linton incapacitance meter measures the weight exerted on each back leg whilst the rat is stationary in a clear Perspex box. The difference in weight bearing can then be calculated between the left and right leg. All rats were euthanized on day 21 and the knee joints fixed in formalin for histology.

AIA rats [5] = assay: Footprint analysis in AIA rats
Procedure: (§4) For AIA, after a 7 day settling in period, animals received a subcutaneous injection of methylated bovine serum albumin (mBSA; 0.5 mg/ml; Sigma, Poole, UK) emulsified with an equal volume of Freund's complete adjuvant (CFA; 0.25 mg Mycobacterium tuberculosis: Sigma) into the right flank. A second subcutaneous injection of the emulsion was administered in the left flank 7 days later. Fourteen days following the second injection (day 0), an intra-articular injection of mBSA (0.5 mg in 50 μl saline) was administered into the right knee of 15 rats to serve as the AIA group. Another 15 rats received an intra-articular injection of 0.5 mg mBSA mixed with 2.5 mM NBQX (Tocris, Bristol, UK) in 50 μl saline, into the right knee. These rats served as the NBQX treatment group. […] Six control rats received no subcutaneous or intra-articular injections.
Hindlimb walking patterns were evaluated by footprint analysis on days 0, 1, 2, 3, 4, 7, 9, 14 and 21 as previously described (4). […] Three sets of at least two stepping cycles per side (six sequential steps) were performed for each rat per experimental day. Three parameters were measured: limb rotation (angle between a line through the centre of the foot pad parallel to the walking direction and a line through the third digit), stride length (distance between feet of the same side) and stance width (distance between feet of the right and left stepping cycle).

Kainate receptor = conditions: cited from earlier work
MNX rats [6] = assay: Knee swelling in meniscal transection (MNX) rats; assay type: in vivo, rat
Procedure: as §1, §2, §3

human RA FLS = conditions: cited from earlier work
IL-6 mRNA = IL-6 mRNA expression in AIA rat joint tissues (QRT-PCR); assay type: in vivo; conditions: day 21
AMPA receptor = conditions: cited from earlier work
[7] = Body weight in ligament rupture mouse model; assay type: in vivo; conditions: all mice; over 21 days
Procedure: Using our non-invasive ligament rupture model, following trauma mice were given an intra-articular injection of 20 mM NBQX in the right knee. The left knee served as unloaded controls. Sterile water injections were performed in some mice to act as vehicle control. Knee swelling was measured using digital callipers on days 0, 1, 2, 3, 7, 16 and 21. […] Lameness scores were not severe enough to warrant extra doses of pain relief.

Body weight in MNX rats = assay type: in vivo, rat; conditions: all rats; over 21 days
Procedure: as §3

RA FLS = conditions: cited from earlier work
AIA rats [8] = assay: KA1/AMPAR2 immunohistochemistry and TRAP staining in AIA rats; conditions: day 21
Procedure: as §4
GluRs and transporters were localised in sequential paraffin knee sections (9 AIA, 9 NBQX and 6 control knees) using antibodies to kainate (anti-KA1, 1:400 dilution), AMPA receptor-2 (anti-ionotropic glutamate receptor-2, 1:100, both Abcam, Cambridge, UK), GLAST (GLAST11-S, 1:100) and EAAC1 (EAAC11-A, 1:200, both Alpha Diagnostic International, Texas, USA). AMPAR2 was also localised in 6 MNX and 6 naïve rats. Sections, processed as for histology, were deparaffinised and rehydrated prior to antigen retrieval using 1 mg/mitrypsin (Sigma) for 20 minutes at 37° C. Endogenous peroxidase activity was blocked with 0.3% hydrogen peroxide (Sigma) for 30 minutes followed by 3 washes in 1×TBS/0.1% tween for 15 minutes each. Sections were treated with 10% normal blocking serum (Sigma) for 1 hour prior to overnight incubation at 4° C. with primary antibody, followed by 3 washes in 1×TBS/0.1% tween. […] ABC horseradish peroxidase kit following the manufacturer's instructions (Vector Laboratories, Peterborough, UK). Sections were developed using nickel enhanced diaminobenzidine (DAB) (Vector Laboratories), counterstained in Mayer's haematoxylin (Fisher Scientific), rinsed in tap water, dehydrated, cleared in xylene and mounted. […]

ligament ruptured mice = assay: Knee swelling in non-invasive ligament rupture mouse model; assay type: in vivo; conditions: 20 mM intra-articular
Procedure: We have established a non-invasive mouse model of post-traumatic knee joint degeneration due to ligament rupture.
Using custom built cups to hold the knee in flexion, loads (12N, 4 Hz, sine wave; ElectroForce® 3200, BOSE, USA) were applied to the right knees of 12-week-old C57Bl6 mice (n=10). […] Left knees served as unloaded controls. Immediately following ligament rupture, mice were given an intra-articular injection of 20 mM NBQX in to the right knee, whilst the control mice received an intra-articular injection of sterile H2O (vehicle control). A single dose of Temgesic was also given sub-cutaneously to relieve pain for up to 12 hours following loading.
Lameness scores were carried out every day for the first week and then every few days the following weeks to assess the welfare of the animals and the potential need for pain relief. Knee swelling was measured using digital callipers on days 0, 1, 2, 3, 7, 16 and 21. All mice were euthanized on day 21 and the knee joints fixed in formalin for histology.

Compound: NS(=O)(=O)c1cccc2c1c([N+](=O)[O-])cc1[nH]c(=O)c(=O)[nH]c12 [NBQX, 2,3-dihydroxy-6-nitro-7-sulfamoyl-benzo[f]quinoxaline-2,3-dione]
- joint erosion in MRI (AIA rats [1]): greatly reduced
- joint erosions in X-rays (AIA rats [1]): Fewer joint erosions
- synovial inflammation in MRI (AIA rats [1]): greatly reduced
- cathepsin K mRNA expression, inflamed knees vs AIA inflamed knees (Cathepsin K mRNA): significant reduction
- mean knee swelling (AIA rats [2]; day 1, 2.5 mM intra-articular, right knee): 2.95 mm
- reduction in peak knee swelling (AIA rats [2]; day 1, vs AIA rats, 2.5 mM intra-articular): 33%
- knee swelling vs AIA rats (AIA rats [2]; every time point throughout 21 days, P<0.001): significant reduction
- synovial hyperplasia, exudate, infiltrate and articular surface degradation vs AIA rats (AIA rats [3]): significantly less severe
- average joint degeneration severity score vs AIA rats (AIA rats [3]; P<0.001): significantly reduced
- bone changes score vs AIA (AIA rats [3]; P<0.001): largest difference
- synovial inflammation score vs AIA rats (AIA rats [3]; P<0.001): significantly lower
- joint degradation in the MFC vs AIA rats (AIA rats [3]; P<0.01): significantly less joint degradation
- proteoglycan loss score vs AIA (AIA rats [3]; P<0.01): significantly lowered
- tidemark integrity score vs AIA (AIA rats [3]; P<0.01): significantly lowered
- chondrocyte appearance score vs AIA (AIA rats [3]; P<0.05): significantly lowered
- joint degradation in the LFC vs AIA rats (AIA rats [3]; P<0.05): significantly less joint degradation
- difference in weight bearing left/right leg of vehicle control MNX rats compared to NBQX treated rats (MNX rats [4]; 2.5 mM, P<0.01): significantly greater difference in weight bearing
- difference in weight bearing left/right leg of vehicle control MNX rats compared to NBQX treated rats (MNX rats [4]; 12.5 mM, P<0.05): significantly greater difference in weight bearing
- difference in weight bearing left/right leg of vehicle control MNX rats compared to NBQX treated rats (MNX rats [4]; 25 mM, P<0.01): significantly greater difference in weight bearing
- stance width vs control rats (AIA rats [5]; P<0.05): significantly greater
- stride length vs control rats (AIA rats [5]; P<0.05): significantly shorter
- stride length (AIA rats [5]; by day 14): returned to normal
- stance width (AIA rats [5]; by day 21): normal
- weight bearing (footprints) (AIA rats [5]; days 1 and 2): able to weight bear
- degree of foot rotation vs control rats (AIA rats [5]; right limb, P<0.05): significantly greater
- Kainate receptor antagonist (Kainate receptor): Yes
- knee swelling of vehicle control MNX rats compared to NBQX treated MNX rats (MNX rats [6]; day 8, 25 mM intra-articular, P<0.05): significantly greater knee swelling
- knee swelling of vehicle control MNX rats compared to NBQX treated MNX rats (MNX rats [6]; day 14, 2.5 mM intra-articular, P<0.01): significantly greater knee swelling
- knee swelling of vehicle control MNX rats compared to NBQX treated MNX rats (MNX rats [6]; day 14, 12.5 mM intra-articular, P<0.05): significantly greater knee swelling
- MMP-2 expression by FLS (human RA FLS): did not affect
- IL-6 relative expression levels in meniscus vs AIA rats (IL-6 mRNA; inflamed knee, P<0.05): significantly lower
- IL-6 relative expression levels in meniscus vs AIA rats (IL-6 mRNA; left non-inflamed knee): not significant
- AMPA receptor antagonist (AMPA receptor): Yes
- weight [7]: consistently put on weight
- weight (Body weight in MNX rats): consistently put on weight
- inhibition of IL-6 release increased by high glutamate concentrations (RA FLS): inhibited
- GluR positive cells (AIA rats [8]): apparent reduction
- TRAP positive osteoclasts vs AIA (AIA rats [8]): less abundant
- extent of bone remodeling (AIA rats [8]): reduced
- knee swelling vs vehicle controls (ligament ruptured mice; day 7, P<0.05): significantly less knee swelling
- knee swelling vs vehicle controls (ligament ruptured mice; day 21, P<0.001): significantly less knee swelling
- knee swelling compared to day 0 measurements (ligament ruptured mice; from day 2): no significant difference
